Results reported in patent publication US5733719A, “Method of making an assay compound” (priority 1995, dated 1998).
Numbered stars: 1 amine (or outer) side, 2 acyl side, 3 side chain; on linkers, the order of the positions; unused ones are H or OH. Bridge positions count the residues as written; N and C are the ends. Peptide text beside a SMILES is read from it. I, II: the chains in the order shown. Rhodamine110 = O=C1OC2(c3ccc(N[*:1])cc3Oc3cc(N[*:2])ccc32)c2ccccc21

How the values were obtained:
[1] = system: enzyme; assay: Effect of dithioerythritol (DTE) on substrate sensitivity; details: dithioerythritol (DTE) at 1 mM
Source text: Modulators are components used to […] the sensitivity of the enzyme for the leaving group. The modulators speed up or slow down the activity of an enzyme by changing the active site. […] Preferred modulators for particular enzymes are included in Table 1.

[2] = system: Lymphs; assay: Peptidases to distinguish leukemia from non-leukemia, lymphocytes; format: cell-based, human; parameters: unit not given here
Source text: (§1) Artificial intelligence was used to analyze data of cellular enzyme functions, and determine normal and disease states. Peptidases were used to distinguish leukemia from non-leukemia (output pattern). For input patterns lymphocyte and granulocyte cell types were used with aminopeptidases, cathepsins and dipeptidylpeptidase enzyme activities. In this Example, illustrated in Tables 6A-6C, three normals and three leukemia patients were used as known output patterns for the neural network to learn (in practice, the larger the learning set the more accurate unknown prediction will be). Unknowns were then presented to the learned algorithm as shown in the test case examples. Clinical diagnosis was confirmed by physicians. The trained neural network was able to correctly classify the leukemia from the non-leukemia.

[3] = system: Grans; assay: Peptidases to distinguish leukemia from non-leukemia, granulocytes; format: cell-based, human; parameters: unit not given here
Source text: as §1

SMILES: NCC(=O)Nc1ccc2c(c1)Oc1cc(NC(=O)CN)ccc1C21OC(=O)c2ccccc21 [GLY, (Gly)2 Rho 110]
- effect of DTE on sensitivity [1]: decreases the sensitivity
- enzyme activity ([2]; J4 11/21/91 acute leuk.): 14.02
- enzyme activity ([2]; J4 12/2/91 AL): 27.32
- enzyme activity ([2]; J4 12/3/91 acute leuk.): 31.51
- enzyme activity ([2]; J5 11/27/91 AML): 28.36
- enzyme activity ([2]; J19 11/27/91 CLL): 11.39
- enzyme activity ([2]; J22 12/2/91 AML): 24.50
- enzyme activity ([2]; J22 12/9/91 AML): 27.14
- enzyme activity ([2]; N99° normal): 30.68
- enzyme activity ([2]; N191 normal): 43.57
- enzyme activity ([2]; N192 normal): 37.47
- enzyme activity ([2]; N193 normal): 39.30
- enzyme activity ([2]; N194 normal): 39.76
- enzyme activity ([2]; N195 normal): 48.18
- enzyme activity ([2]; N197 normal): 42.96
- enzyme activity ([2]; N200 normal): 42.28
- enzyme activity ([2]; N201 normal): 45.32
- enzyme activity ([2]; N202 normal): 44.55
- enzyme activity ([2]; N206 normal): 55.56
- enzyme activity ([2]; P68 tachycardia): 59.29
- enzyme activity ([2]; P69 pancreatic CA): 67.38
- enzyme activity ([2]; P70 cirrhosis/hemobilia): 54.84
- enzyme activity ([2]; P71 ac. pyelonephritis): 41.93
- enzyme activity ([3]; J4 11/21/91 acute leuk.): 27.79
- enzyme activity ([3]; J4 12/2/91 AL): 47.74
- enzyme activity ([3]; J4 12/3/91 acute leuk.): 48.53
- enzyme activity ([3]; J5 11/27/91 AML): 56.33
- enzyme activity ([3]; J19 11/27/91 CLL): 48.80
- enzyme activity ([3]; J22 12/2/91 AML): 34.02
- enzyme activity ([3]; J22 12/9/91 AML): 38.47
- enzyme activity ([3]; N99° normal): 45.00
- enzyme activity ([3]; N191 normal): 73.20
- enzyme activity ([3]; N192 normal): 43.67
- enzyme activity ([3]; N193 normal): 63.33
- enzyme activity ([3]; N194 normal): 60.30
- enzyme activity ([3]; N195 normal): 79.13
- enzyme activity ([3]; N197 normal): 76.88
- enzyme activity ([3]; N200 normal): 59.39
- enzyme activity ([3]; N201 normal): 75.48
- enzyme activity ([3]; N202 normal): 66.22
- enzyme activity ([3]; N206 normal): 91.93
- enzyme activity ([3]; P68 tachycardia): 100.00
- enzyme activity ([3]; P69 pancreatic CA): 88.04
- enzyme activity ([3]; P70 cirrhosis/hemobilia): 88.42
- enzyme activity ([3]; P71 ac. pyelonephritis): 59.35

SMILES: O=C1OC2(c3ccc(NC(=O)[C@@H]4CCCN4)cc3Oc3cc(NC(=O)[C@@H]4CCCN4)ccc32)c2ccccc21 [PRO, (H--L--Pro)2 Rho 110-2TFA]
- effect of DTE on sensitivity [1]: decreases the sensitivity
- enzyme activity ([2]; J4 11/21/91 acute leuk.): 0.47
- enzyme activity ([2]; J4 12/2/91 AL): 0.29
- enzyme activity ([2]; J4 12/3/91 acute leuk.): 0.24
- enzyme activity ([2]; J5 11/27/91 AML): 0.89
- enzyme activity ([2]; J19 11/27/91 CLL): 0.44
- enzyme activity ([2]; J22 12/2/91 AML): 0.40
- enzyme activity ([2]; J22 12/9/91 AML): 0.44
- enzyme activity ([2]; N99° normal): 1.02
- enzyme activity ([2]; N191 normal): 0.69
- enzyme activity ([2]; N192 normal): 1.14
- enzyme activity ([2]; N193 normal): 0.95
- enzyme activity ([2]; N194 normal): 0.86
- enzyme activity ([2]; N195 normal): 0.88
- enzyme activity ([2]; N197 normal): 0.57
- enzyme activity ([2]; N200 normal): 0.74
- enzyme activity ([2]; N201 normal): 1.10
- enzyme activity ([2]; N202 normal): 0.89
- enzyme activity ([2]; N206 normal): 1.28
- enzyme activity ([2]; P68 tachycardia): 0.70
- enzyme activity ([2]; P69 pancreatic CA): 0.66
- enzyme activity ([2]; P70 cirrhosis/hemobilia): 0.56
- enzyme activity ([2]; P71 ac. pyelonephritis): 0.52
- enzyme activity ([3]; J4 11/21/91 acute leuk.): 5.77
- enzyme activity ([3]; J4 12/2/91 AL): 3.59
- enzyme activity ([3]; J4 12/3/91 acute leuk.): 3.68
- enzyme activity ([3]; J5 11/27/91 AML): 5.92
- enzyme activity ([3]; J19 11/27/91 CLL): 5.50
- enzyme activity ([3]; J22 12/2/91 AML): 4.03
- enzyme activity ([3]; J22 12/9/91 AML): 3.53
- enzyme activity ([3]; N99° normal): 4.85
- enzyme activity ([3]; N191 normal): 4.34
- enzyme activity ([3]; N192 normal): 4.34
- enzyme activity ([3]; N193 normal): 4.75
- enzyme activity ([3]; N194 normal): 3.75
- enzyme activity ([3]; N195 normal): 4.70
- enzyme activity ([3]; N197 normal): 3.76
- enzyme activity ([3]; N200 normal): 4.04
- enzyme activity ([3]; N201 normal): 6.42
- enzyme activity ([3]; N202 normal): 4.96
- enzyme activity ([3]; N206 normal): 6.13
- enzyme activity ([3]; P68 tachycardia): 7.19
- enzyme activity ([3]; P69 pancreatic CA): 5.70
- enzyme activity ([3]; P70 cirrhosis/hemobilia): 0.66
- enzyme activity ([3]; P71 ac. pyelonephritis): 6.33

SMILES: C[C@@H](O)[C@H](N)C(=O)N1CCC[C@H]1C(=O)Nc1ccc2c(c1)Oc1cc(NC(=O)[C@@H]3CCCN3C(=O)[C@@H](N)[C@@H](C)O)ccc1C21OC(=O)c2ccccc21 [TP]
- enzyme activity ([2]; J4 11/21/91 acute leuk.): 2.30
- enzyme activity ([2]; J4 12/2/91 AL): 1.46
- enzyme activity ([2]; J4 12/3/91 acute leuk.): 1.18
- enzyme activity ([2]; J5 11/27/91 AML): 1.32
- enzyme activity ([2]; J19 11/27/91 CLL): 0.50
- enzyme activity ([2]; J22 12/2/91 AML): 0.99
- enzyme activity ([2]; J22 12/9/91 AML): 1.02
- enzyme activity ([2]; N99° normal): 1.86
- enzyme activity ([2]; N191 normal): 2.14
- enzyme activity ([2]; N192 normal): 2.12
- enzyme activity ([2]; N194 normal): 1.82
- enzyme activity ([2]; N195 normal): 1.90
- enzyme activity ([2]; N197 normal): 1.96
- enzyme activity ([2]; N200 normal): 2.39
- enzyme activity ([2]; N201 normal): 1.88
- enzyme activity ([2]; N202 normal): 2.49
- enzyme activity ([2]; N206 normal): 2.89
- enzyme activity ([2]; P68 tachycardia): 1.90
- enzyme activity ([2]; P69 pancreatic CA): 2.26
- enzyme activity ([2]; P70 cirrhosis/hemobilia): 1.89
- enzyme activity ([2]; P71 ac. pyelonephritis): 1.86
- enzyme activity ([3]; J4 11/21/91 acute leuk.): 5.96
- enzyme activity ([3]; J4 12/2/91 AL): 2.59
- enzyme activity ([3]; J4 12/3/91 acute leuk.): 1.93
- enzyme activity ([3]; J5 11/27/91 AML): 2.72
- enzyme activity ([3]; J19 11/27/91 CLL): 2.95
- enzyme activity ([3]; J22 12/2/91 AML): 2.33
- enzyme activity ([3]; J22 12/9/91 AML): 2.51
- enzyme activity ([3]; N99° normal): 3.71
- enzyme activity ([3]; N191 normal): 4.73
- enzyme activity ([3]; N192 normal): 4.62
- enzyme activity ([3]; N193 normal): 4.96
- enzyme activity ([3]; N194 normal): 3.77
- enzyme activity ([3]; N195 normal): 3.74
- enzyme activity ([3]; N197 normal): 3.82
- enzyme activity ([3]; N200 normal): 4.69
- enzyme activity ([3]; N201 normal): 4.23
- enzyme activity ([3]; N202 normal): 4.44
- enzyme activity ([3]; N206 normal): 5.98
- enzyme activity ([3]; P68 tachycardia): 4.63
- enzyme activity ([3]; P69 pancreatic CA): 4.21
- enzyme activity ([3]; P70 cirrhosis/hemobilia): 4.02
- enzyme activity ([3]; P71 ac. pyelonephritis): 4.37

SMILES: CC(C)[C@H](N)C(=O)N[C@@H](CO)C(=O)Nc1ccc2c(c1)Oc1cc(NC(=O)[C@H](CO)NC(=O)[C@@H](N)C(C)C)ccc1C21OC(=O)c2ccccc21 [VS, (H--L--Val--Ser)2 Rho 110-2TFA]
- enzyme activity ([2]; J4 11/21/91 acute leuk.): 0.05
- enzyme activity ([2]; J4 12/2/91 AL): 0.03
- enzyme activity ([2]; J4 12/3/91 acute leuk.): 0.04
- enzyme activity ([2]; J5 11/27/91 AML): 0.05
- enzyme activity ([2]; J19 11/27/91 CLL): 0.01
- enzyme activity ([2]; J22 12/2/91 AML): 0.01
- enzyme activity ([2]; J22 12/9/91 AML): 0.04
- enzyme activity ([2]; N99° normal): 0.03
- enzyme activity ([2]; N191 normal): 0.14
- enzyme activity ([2]; N192 normal): 0.08
- enzyme activity ([2]; N193 normal): 0.09
- enzyme activity ([2]; N194 normal): 0.07
- enzyme activity ([2]; N195 normal): 0.06
- enzyme activity ([2]; N197 normal): 0.11
- enzyme activity ([2]; N200 normal): 0.06
- enzyme activity ([2]; N201 normal): 0.07
- enzyme activity ([2]; N202 normal): 0.04
- enzyme activity ([2]; N206 normal): 0.28
- enzyme activity ([2]; P68 tachycardia): 0.05
- enzyme activity ([2]; P69 pancreatic CA): 0.18
- enzyme activity ([2]; P70 cirrhosis/hemobilia): 0.04
- enzyme activity ([2]; P71 ac. pyelonephritis): 0.08
- enzyme activity ([3]; J4 11/21/91 acute leuk.): 0.37
- enzyme activity ([3]; J4 12/2/91 AL): 0.14
- enzyme activity ([3]; J4 12/3/91 acute leuk.): 0.23
- enzyme activity ([3]; J5 11/27/91 AML): 1.13
- enzyme activity ([3]; J19 11/27/91 CLL): 2.83
- enzyme activity ([3]; J22 12/2/91 AML): 0.22
- enzyme activity ([3]; J22 12/9/91 AML): 0.32
- enzyme activity ([3]; N99° normal): 0.14
- enzyme activity ([3]; N191 normal): 0.64
- enzyme activity ([3]; N192 normal): 0.40
- enzyme activity ([3]; N193 normal): 0.44
- enzyme activity ([3]; N194 normal): 0.29
- enzyme activity ([3]; N195 normal): 0.37
- enzyme activity ([3]; N197 normal): 0.58
- enzyme activity ([3]; N200 normal): 0.24
- enzyme activity ([3]; N201 normal): 0.32
- enzyme activity ([3]; N202 normal): 0.24
- enzyme activity ([3]; N206 normal): 1.03
- enzyme activity ([3]; P68 tachycardia): 0.33
- enzyme activity ([3]; P69 pancreatic CA): 0.57
- enzyme activity ([3]; P70 cirrhosis/hemobilia): 0.26
- enzyme activity ([3]; P71 ac. pyelonephritis): 0.69

SMILES: CC(C)[C@H](N)C(=O)N[C@@H](CCCCN)C(=O)N[C@H](C(=O)N[C@@H](CCCCN)C(=O)Nc1ccc2c(c1)Oc1cc(NC(=O)[C@H](CCCCN)NC(=O)[C@@H](NC(=O)[C@H](CCCCN)NC(=O)[C@@H](N)C(C)C)C(C)C)ccc1C21OC(=O)c2ccccc21)C(C)C [Val-Lys-Val-Lys, (H--L--Val--Lys--Val--Lys)2 Rho 110-6TFA] (I: H-VKVK / II: H-VKVK; linker I:C-II:C via Rhodamine110)
- effect of DTE on sensitivity [1]: decreases the sensitivity
